This test concerns the target T1, Human FAAH (Homo sapiens, UniProt O00519).
T1 construct: made in house
T1 sequence (O00519 1-579): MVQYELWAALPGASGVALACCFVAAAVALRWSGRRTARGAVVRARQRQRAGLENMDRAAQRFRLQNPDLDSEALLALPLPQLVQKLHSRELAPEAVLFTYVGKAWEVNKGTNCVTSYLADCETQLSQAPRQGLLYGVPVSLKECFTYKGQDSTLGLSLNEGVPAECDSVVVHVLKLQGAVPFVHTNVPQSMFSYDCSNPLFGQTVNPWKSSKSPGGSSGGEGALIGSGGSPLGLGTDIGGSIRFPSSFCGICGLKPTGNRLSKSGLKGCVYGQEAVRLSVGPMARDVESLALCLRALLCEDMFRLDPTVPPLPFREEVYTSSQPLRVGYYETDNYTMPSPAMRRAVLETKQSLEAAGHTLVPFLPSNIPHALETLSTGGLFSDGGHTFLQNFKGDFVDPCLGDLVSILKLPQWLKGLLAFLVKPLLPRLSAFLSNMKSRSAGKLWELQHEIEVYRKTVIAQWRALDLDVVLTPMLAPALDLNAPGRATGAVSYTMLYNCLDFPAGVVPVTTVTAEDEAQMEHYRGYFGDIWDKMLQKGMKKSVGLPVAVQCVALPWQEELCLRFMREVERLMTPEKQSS
Description: FAAH enzyme assay (glutamate dehydrogenase-coupled, oleamide substrate). It counts as biochemical. The following applies: human FAAH 1-4 nM, pH 7.4, 30° C., absorbance at 340 nm over 90 min, read-out: hFAAH Kinact/Ki. On the procedure:
A FAAH enzyme assay may be carried out as described in W02006/085196 in 384-well clear polystyrene plates in a total volume of 50 μl per well. All percents are by volume. To each well was placed the reaction mixture (40 μl) containing 1-4 nM FAAH, 50 mM NaPi, pH 7.4, 3 mM α-ketoglutarate, 0.15 mM NADH, 7.5 U/ml glutamate dehydrogenase, 2 mM ADP, 1 mM EDTA, and 0.1% Triton X-100 (The concentration shown for each component is the final concentration in the assay). To this mixture was added 5 μl of a compound of Examples 1 to 20 at various concentrations prepared in 50% DMSO (or 5 μl 50% DMSO for controls). This was immediately followed by the addition of 5 μl oleamide (500 μM) dissolved in 75% EtOH/25% DMSO and the reaction mixture is mixed for 1.5 min. The final concentrations of DMSO and EtOH in the assay were each 7.5%. The reactions was then incubated at 30° C. and the absorbance at 340 nm was collected over a period of 90 min with readings taken in 30-second intervals using SpectraMax Plus^384 Microplate Spectrophotometer (Molecular Devices, Sunnyvale, Calif.). Human FAAH used in the assay was prepared as described in the patent application WO 2006/067613. The purity of the enzyme used was greater than 98% based on an analysis by SDS-polyacrylamide gel electrophoresis followed by Coomassie Blue staining.
Initial velocity data (V) is obtained from the slopes of the initial progressive curves. They are plotted as a function of substrate concentration and fit to the Michaelis-Menten equation (1) using Prism (GraphPad Software, Inc., San Diego, Calif.) software to obtain Km and Vmax values.
To obtain potencies of irreversible inhibitors, progressive curves consistent with first order inhibition kinetics (two-step irreversible inhibition mechanism) are fit to equation (2) by nonlinear least squares regressions to determine kobs values at each inhibitor concentration, where [P]t is the absorbance at time t, V0 is a constant related to the steady state rate of the uninhibited reaction, and kobs is the first order rate constant for enzyme inactivation. […]
As to `Cc1noc(NC(=O)N2CC/C(=C\c3cccc(Oc4ccc(C(F)(F)F)cn4)c3)C(C)C2)c1C` (single isomer, unassigned) [Example 1, (4E)-N-(3,4-dimethylisoxazol-5-yl)-3-methyl-4-(3-{[5-(trifluoromethyl)pyridin-2-yl]oxy}benzylidene)piperidine-1-carboxamide], the kinact/KI was found to be 624 M⁻¹ s⁻¹.

Regarding `Cc1oncc1NC(=O)N1CC/C(=C\c2cccc(Oc3ccc(C(F)(F)F)cn3)c2)C(C)C1` (single isomer, unassigned) [Example 2, (4E)-3-methyl-N-(5-methylisoxazol-4-yl)-4-(3-{[5-(trifluoromethyl)pyridin-2-yl]oxy}benzylidene)piperidine-1-carboxamide], the kinact/KI amounted to 2850 M⁻¹ s⁻¹.

With `CC1CN(C(=O)Nc2cnoc2)CC/C1=C\c1cccc(Oc2ccc(C(F)(F)F)cn2)c1` (single isomer, unassigned) [Example 3, (4E)-N-isoxazol-4-yl-3-methyl-4-(3-{[5-(trifluoromethyl)pyridin-2-yl]oxy}benzylidene)piperidine-1-carboxamide], the kinact/KI came to 4350 M⁻¹ s⁻¹.

Source of the values: patent publication US20110060012A1, “4-[3-(ARYLOXY)BENZYLIDENE]-3-METHYL PIPERIDINE 5-MEMBERED ARYL CARBOXAMIDE COMPOUNDS USEFUL AS FAAH INHIBITORS” (Pfizer Inc., priority 2008, published 2011).
